Source: ChEMBL document CHEMBL5303304, “EUbOPEN Chemogenomics Library - IncuCyte” (2023)

How the values were obtained:
Format in all cases: toxicity, cell-based
Fibroblast = assay: Incucyte cell viability with human fibroblast; settings: 10 µM, compound concentration 10 uM
HEK-293T = assay: Incucyte cell viability with HEK293T; settings: human, 10 µM, compound concentration 10 uM
U2OS = assay: Incucyte cell viability with U2OS; settings: human, 10 µM, compound concentration 10 uM
Also: unitless GR value; below 1 slowed growth and below 0 cell loss.

## C[C@@H]1CC[C@@]2(OC1)O[C@H]1[C@@H](O)[C@H]3[C@@H]4CC[C@H]5C[C@@H](O[C@@H]6O[C@H](CO)[C@H](O[C@@H]7O[C@H](CO)C(O)[C@H](O[C@@H]8OC[C@@H](O)[C@H](O)[C@H]8O)[C@H]7O[C@@H]7O[C@H](CO)[C@H](O)[C@H](O[C@@H]8O[C@H](CO)[C@@H](O)[C@H](O)[C@H]8O)[C@H]7O)[C@H](O)[C@H]6O)[C@H](O)C[C@]5(C)[C@H]4CC[C@]3(C)[C@H]1[C@@H]2C (stereo not given in full) [DIGITONIN]
Fibroblast; 0 h, replicate number 1
  Growth Rate: 0.3
Fibroblast; 0 h, replicate number 2
  Growth Rate: 0.94
Fibroblast; 6 h, replicate number 2
  Growth Rate: 0.68
Fibroblast; 12 h, replicate number 2
  Growth Rate: 0.67
Fibroblast; 18 h, replicate number 1
  Growth Rate: 0.93
Fibroblast; 18 h, replicate number 2
  Growth Rate: 0.73
Fibroblast; 24 h, replicate number 1
  Growth Rate: 0.88
Fibroblast; 24 h, replicate number 2
  Growth Rate: 0.85
HEK-293T; 0 h, replicate number 1
  Growth Rate: -0.37
HEK-293T; 6 h, replicate number 2
  Growth Rate: 0.94
HEK-293T; 12 h, replicate number 2
  Growth Rate: 0.65
HEK-293T; 18 h, replicate number 2
  Growth Rate: 0.68
HEK-293T; 24 h, replicate number 2
  Growth Rate: 0.72
U2OS; 0 h, replicate number 1
  Growth Rate: 0.49
U2OS; 0 h, replicate number 2
  Growth Rate: 0.74
U2OS; 6 h, replicate number 2
  Growth Rate: 0.68
U2OS; 12 h, replicate number 1
  Growth Rate: 0.85
U2OS; 12 h, replicate number 2
  Growth Rate: 0.67
U2OS; 18 h, replicate number 1
  Growth Rate: 0.96
U2OS; 18 h, replicate number 2
  Growth Rate: 0.6
U2OS; 24 h, replicate number 1
  Growth Rate: 1
U2OS; 24 h, replicate number 2
  Growth Rate: 0.6

## CN(C)c1cc2c(Nc3ccc4c(cnn4Cc4ccccc4)c3)ncnc2cn1 [GW282974X]
Fibroblast; 0 h, replicate number 1
  Growth Rate: -1
Fibroblast; 18 h, replicate number 2
  Growth Rate: 0.86
Fibroblast; 24 h, replicate number 1
  Growth Rate: 0.77
Fibroblast; 24 h, replicate number 2
  Growth Rate: 0.69
HEK-293T; 0 h, replicate number 1
  Growth Rate: -1
HEK-293T; 0 h, replicate number 2
  Growth Rate: -0.53
HEK-293T; 12 h, replicate number 2
  Growth Rate: 0.95
HEK-293T; 18 h, replicate number 1
  Growth Rate: 0.8
HEK-293T; 18 h, replicate number 2
  Growth Rate: 0.77
HEK-293T; 24 h, replicate number 1
  Growth Rate: 0.59
HEK-293T; 24 h, replicate number 2
  Growth Rate: 0.61
U2OS; 0 h, replicate number 1
  Growth Rate: -0.05
U2OS; 6 h, replicate number 2
  Growth Rate: 0.77
U2OS; 12 h, replicate number 1
  Growth Rate: 0.77
U2OS; 12 h, replicate number 2
  Growth Rate: 0.87
U2OS; 18 h, replicate number 1
  Growth Rate: 0.83
U2OS; 18 h, replicate number 2
  Growth Rate: 0.91
U2OS; 24 h, replicate number 2
  Growth Rate: 0.65

## CN(C)CCCn1cc(C2=C(c3c[nH]c4ccccc34)C(=O)NC2=O)c2ccccc21 [GF-109203]
Fibroblast; 0 h, replicate number 2
  Growth Rate: -0.49
Fibroblast; 6 h, replicate number 1
  Growth Rate: -0.72
Fibroblast; 12 h, replicate number 1
  Growth Rate: -1
Fibroblast; 18 h, replicate number 2
  Growth Rate: 0.65
Fibroblast; 24 h, replicate number 2
  Growth Rate: 0.41
HEK-293T; 0 h, replicate number 1
  Growth Rate: -0.26
HEK-293T; 0 h, replicate number 2
  Growth Rate: -0.46
HEK-293T; 12 h, replicate number 2
  Growth Rate: 0.81
HEK-293T; 18 h, replicate number 2
  Growth Rate: 0.99
HEK-293T; 24 h, replicate number 2
  Growth Rate: 0.98
U2OS; 0 h, replicate number 1
  Growth Rate: -0.01
U2OS; 18 h, replicate number 1
  Growth Rate: 0.94
U2OS; 24 h, replicate number 1
  Growth Rate: 0.8
U2OS; 24 h, replicate number 2
  Growth Rate: 0.82

## NCC1CCC(CNc2nc(NCc3ccccc3OC(F)(F)F)ncc2[N+](=O)[O-])CC1 (stereo not given)
Fibroblast; 0 h, replicate number 1
  Growth Rate: -0.85
Fibroblast; 6 h, replicate number 1
  Growth Rate: 0.48
Fibroblast; 6 h, replicate number 2
  Growth Rate: 0.74
Fibroblast; 12 h, replicate number 1
  Growth Rate: 0.28
Fibroblast; 12 h, replicate number 2
  Growth Rate: 0.57
Fibroblast; 18 h, replicate number 1
  Growth Rate: -0.03
Fibroblast; 18 h, replicate number 2
  Growth Rate: 0.35
Fibroblast; 24 h, replicate number 1
  Growth Rate: 0.04
Fibroblast; 24 h, replicate number 2
  Growth Rate: 0.35
HEK-293T; 6 h, replicate number 1
  Growth Rate: -0.6
HEK-293T; 6 h, replicate number 2
  Growth Rate: -0.49
HEK-293T; 12 h, replicate number 1
  Growth Rate: -0.36
HEK-293T; 12 h, replicate number 2
  Growth Rate: -0.27
HEK-293T; 18 h, replicate number 1
  Growth Rate: -0.04
HEK-293T; 18 h, replicate number 2
  Growth Rate: -0.01
HEK-293T; 24 h, replicate number 1
  Growth Rate: 0.09
HEK-293T; 24 h, replicate number 2
  Growth Rate: 0.1
U2OS; 6 h, replicate number 1
  Growth Rate: 0.45
U2OS; 6 h, replicate number 2
  Growth Rate: 0.71
U2OS; 12 h, replicate number 1
  Growth Rate: 0.44
U2OS; 12 h, replicate number 2
  Growth Rate: 0.59
U2OS; 18 h, replicate number 1
  Growth Rate: 0.69
U2OS; 18 h, replicate number 2
  Growth Rate: 0.63
U2OS; 24 h, replicate number 1
  Growth Rate: 0.84
U2OS; 24 h, replicate number 2
  Growth Rate: 0.59

## Cc1cc(C)nc(Nc2ncc(C(=O)NCCc3c(C)[nH]c4ccccc34)cn2)c1.Cl
Fibroblast; 0 h, replicate number 1
  Growth Rate: -1
Fibroblast; 24 h, replicate number 2
  Growth Rate: 0.93
HEK-293T; 6 h, replicate number 1
  Growth Rate: 0.92
HEK-293T; 6 h, replicate number 2
  Growth Rate: 0.14
HEK-293T; 12 h, replicate number 2
  Growth Rate: 0.82
HEK-293T; 18 h, replicate number 1
  Growth Rate: 0.94
HEK-293T; 18 h, replicate number 2
  Growth Rate: 1
HEK-293T; 24 h, replicate number 1
  Growth Rate: 0.99
U2OS; 0 h, replicate number 2
  Growth Rate: 0.92
U2OS; 6 h, replicate number 1
  Growth Rate: 0.56
U2OS; 6 h, replicate number 2
  Growth Rate: 0.75
U2OS; 12 h, replicate number 1
  Growth Rate: 0.79
U2OS; 12 h, replicate number 2
  Growth Rate: 0.87
U2OS; 18 h, replicate number 1
  Growth Rate: 0.77
U2OS; 24 h, replicate number 1
  Growth Rate: 0.98

## COc1cc(-c2cc(-c3cccc(O)c3)cnc2N)cc(OC)c1OC
Fibroblast; 0 h, replicate number 1
  Growth Rate: 0.1
Fibroblast; 0 h, replicate number 2
  Growth Rate: -0.98
Fibroblast; 6 h, replicate number 1
  Growth Rate: -0.21
Fibroblast; 12 h, replicate number 1
  Growth Rate: -1
Fibroblast; 18 h, replicate number 1
  Growth Rate: 0.59
HEK-293T; 6 h, replicate number 1
  Growth Rate: -0.66
HEK-293T; 6 h, replicate number 2
  Growth Rate: 0.38
HEK-293T; 12 h, replicate number 1
  Growth Rate: -0.58
HEK-293T; 12 h, replicate number 2
  Growth Rate: 0.41
HEK-293T; 18 h, replicate number 1
  Growth Rate: -0.43
HEK-293T; 18 h, replicate number 2
  Growth Rate: 0.33
HEK-293T; 24 h, replicate number 1
  Growth Rate: -0.24
HEK-293T; 24 h, replicate number 2
  Growth Rate: 0.42
U2OS; 12 h, replicate number 1
  Growth Rate: 0.89
U2OS; 12 h, replicate number 2
  Growth Rate: 0.96
U2OS; 18 h, replicate number 1
  Growth Rate: 0.73
U2OS; 18 h, replicate number 2
  Growth Rate: 0.85
U2OS; 24 h, replicate number 1
  Growth Rate: 0.75
U2OS; 24 h, replicate number 2
  Growth Rate: 0.86

## Cl.Cl.N#Cc1ccc(O[C@@H]2c3ccccc3C[C@H]2N2CCC[C@@H](N)C2)c(Cl)c1
Fibroblast; 6 h, replicate number 1
  Growth Rate: -1
Fibroblast; 6 h, replicate number 2
  Growth Rate: 0.35
Fibroblast; 12 h, replicate number 2
  Growth Rate: 0.27
Fibroblast; 18 h, replicate number 2
  Growth Rate: 0.29
Fibroblast; 24 h, replicate number 2
  Growth Rate: 0.37
HEK-293T; 6 h, replicate number 1
  Growth Rate: -0.97
HEK-293T; 6 h, replicate number 2
  Growth Rate: -0.57
HEK-293T; 12 h, replicate number 1
  Growth Rate: -0.93
HEK-293T; 12 h, replicate number 2
  Growth Rate: -0.24
HEK-293T; 18 h, replicate number 1
  Growth Rate: -0.77
HEK-293T; 18 h, replicate number 2
  Growth Rate: -0.13
HEK-293T; 24 h, replicate number 1
  Growth Rate: -0.66
HEK-293T; 24 h, replicate number 2
  Growth Rate: -0.04
U2OS; 0 h, replicate number 1
  Growth Rate: -1
U2OS; 12 h, replicate number 1
  Growth Rate: 0.7
U2OS; 12 h, replicate number 2
  Growth Rate: 0.96
U2OS; 18 h, replicate number 1
  Growth Rate: 0.67
U2OS; 18 h, replicate number 2
  Growth Rate: 0.86
U2OS; 24 h, replicate number 1
  Growth Rate: 0.72
U2OS; 24 h, replicate number 2
  Growth Rate: 0.93

## CC[C@@H](CO)Nc1nc(Nc2cccc(NC(=O)C(C)(C)C)c2)ncc1F
Fibroblast; 0 h, replicate number 2
  Growth Rate: 0.61
HEK-293T; 0 h, replicate number 1
  Growth Rate: 0.29
HEK-293T; 12 h, replicate number 1
  Growth Rate: 0.87
HEK-293T; 24 h, replicate number 1
  Growth Rate: 0.96
U2OS; 0 h, replicate number 2
  Growth Rate: 0.94
U2OS; 6 h, replicate number 1
  Growth Rate: 0.56
U2OS; 6 h, replicate number 2
  Growth Rate: 0.8
U2OS; 12 h, replicate number 1
  Growth Rate: 0.66
U2OS; 12 h, replicate number 2
  Growth Rate: 0.83
U2OS; 18 h, replicate number 1
  Growth Rate: 0.87
U2OS; 18 h, replicate number 2
  Growth Rate: 0.86
U2OS; 24 h, replicate number 1
  Growth Rate: 0.91
U2OS; 24 h, replicate number 2
  Growth Rate: 0.89

## CN1CCC(C#N)(NC(=O)[C@@H](NC(=O)N2CCOCC2)C(C)(C)C)CC1
Fibroblast; 0 h, replicate number 2
  Growth Rate: -0.99
Fibroblast; 6 h, replicate number 1
  Growth Rate: 0.5
Fibroblast; 18 h, replicate number 1
  Growth Rate: 0.98
Fibroblast; 18 h, replicate number 2
  Growth Rate: 0.75
Fibroblast; 24 h, replicate number 1
  Growth Rate: 0.99
HEK-293T; 0 h, replicate number 1
  Growth Rate: 0.92
HEK-293T; 0 h, replicate number 2
  Growth Rate: 0.91
HEK-293T; 6 h, replicate number 1
  Growth Rate: 0.8
U2OS; 0 h, replicate number 2
  Growth Rate: 0.61
U2OS; 6 h, replicate number 2
  Growth Rate: 0.92
U2OS; 12 h, replicate number 1
  Growth Rate: 0.98
U2OS; 18 h, replicate number 1
  Growth Rate: 0.98
U2OS; 18 h, replicate number 2
  Growth Rate: 1
U2OS; 24 h, replicate number 1
  Growth Rate: 0.92

## C[C@@H](CO)CCC[C@@H](C)[C@H]1CC[C@H]2[C@@H]3CC=C4C[C@@H](O)CC[C@]4(C)[C@H]3CC[C@]12C
Fibroblast; 0 h, replicate number 1
  Growth Rate: 0.73
Fibroblast; 6 h, replicate number 1
  Growth Rate: 0.92
Fibroblast; 6 h, replicate number 2
  Growth Rate: 0.36
Fibroblast; 12 h, replicate number 1
  Growth Rate: 0.57
Fibroblast; 12 h, replicate number 2
  Growth Rate: 0.22
Fibroblast; 18 h, replicate number 1
  Growth Rate: 0.33
Fibroblast; 18 h, replicate number 2
  Growth Rate: 0.27
Fibroblast; 24 h, replicate number 1
  Growth Rate: 0.6
Fibroblast; 24 h, replicate number 2
  Growth Rate: 0.25
HEK-293T; 0 h, replicate number 1
  Growth Rate: 0.34
HEK-293T; 12 h, replicate number 2
  Growth Rate: 0.79
HEK-293T; 24 h, replicate number 2
  Growth Rate: 1
U2OS; 6 h, replicate number 2
  Growth Rate: 0.82
U2OS; 12 h, replicate number 1
  Growth Rate: 0.84
U2OS; 18 h, replicate number 1
  Growth Rate: 0.88
